Source: patent US20260376299A1, “METHODS OF TREATING ACUTE MYELOID LEUKEMIA” (The Regents of the University of Colorado, A Body Corporate, priority 2022, published 2026)

Legend:
p-LSCs = assay: Colony-forming unit (CFU) assay on p-LSCs; type: cell-based, human
Experimental: (§1) FIG. 6C and FIG. 6D show the impact of chemotherapy agents AraC, DNR, DHODH inhibitor brequinar (BRQ), and TYMS inhibitor methotrexate (MTX) on the CFU potential of m-LSCs, p-LSCs and CD34+ HSPCs. […] IP, intraperitoneal; OG, oral gavage. […] Engraft % was determined by % of hCD45+/mCD45− cells within total viable bone marrow mononuclear cells. Each dot represents a unique mouse. For PDX of AML-13, control (n=11), VEN+AZA(n=9), CdA(n=10), VEN+AZA+CdA(n=10). For PDX of AML-07, control(n=11), VEN+AZA(n=9), CdA(n=12), VEN+AZA+CdA(n=9). Box plots represent median+interquartile range. Kruskal-Wallis test was used. ns, not significant. […] Engraft % was determined by % of hCD45+/mCD45− cells within total viable spleen mononuclear cells. hCD45+ count was determined by direct quantification of hCD45+/mCD45− cells within a set volume of spleen harvest using flow cytometry. Each dot represents a unique mouse. Control (n=6), VEN+AZA(n=6), CdA(n=6), VEN+AZA+CdA(n=6). Box plots represent median+/−interquartile. Kruskal-Wallis test was used. ns, not significant. […]
(§2) Freshly sorted m-LSCs from primary AMLs or prepared CD34+ HSPCs isolated from normal mobilized peripheral samples were plated in human methylcellulose (R&D systems) at about 100 K/ml and 2 K/ml, respectively. […] Colonies were counted 2-3 weeks after the initial plating.

normal CD34+ HSPCs = assay: Colony-forming unit (CFU) assay on normal CD34+ HSPCs; type: cell-based, human; conditions: normal CD34+ HSPCs from two healthy donors
Experimental: as §1, §2

[1] = system: monocytic subpopulation of engrafted AML cells; assay: Flow analysis of residual engrafted human cells after in vivo treatment; design: species or system human AML in NSG-S mice
Experimental: (§3) Methotrexate (MTX), brequinar (BRQ), and cladribine (CdA) were selected based on their activities in inhibiting one-carbon metabolism enzymes DHFR and TYMS, pyrimidine synthesis enzyme DHODH, and purine-based DNA/RNA synthesis, respectively. Colony-forming unit assays were performed on m-LSCs and p-LSCs isolated from Mono, Multi-MMP, and Prim specimens, along with normal CD34+ hematopoietic stem and progenitor cells (HSPC) from two healthy donors.
NSG-S (NOD.Cg-Prkdcscid Il2rgtm1Wjl Tg(CMV-IL3,CSF2,KITLG)1Eav/MloySzJ) mice (The Jackson Laboratory) were used for xenograft studies in this study. Male or female mice ranging in age from 6 to 8 weeks were started on experiment. Littermates of the same sex were randomly assigned to experimental groups. NSG-S mice were pre-conditioned 24 hours prior to transplant with 30 mg/kg busulfan (Alfa Acsar) via intraperitoneal (IP) injection. The busulfan stock was made fresh at 25 mg/ml in 100% DMSO, then the stock was diluted 1:10 in pre-warmed saline (0.9% NaCl) down to 2.5 mg/ml right before use. The diluted busulfan solution was kept in 37 °C water bath before IP injection to prevent precipitation of busulfan due to low solubility. […]
About 2-4 weeks post initial transplant, tumor burden in the bone marrow was determined to be above 5% in sentinel mice. […]

m-LSCs = assay: Colony-forming unit (CFU) assay on m-LSCs; type: cell-based, human; conditions: for potency against m-LSCs, CdA versus BRQ and MTX / selectivity for m-LSCs over p-LSCs and normal HSPCs: CFU assay; for potency against m-LSCs, CdA versus BRQ and MTX: FIG. 6D; for selectivity for m-LSCs over p-LSCs and normal HSPCs: FIG. 6C
Experimental: FIG. 6C and FIG. 6D show the impact of chemotherapy agents AraC, DNR, DHODH inhibitor brequinar (BRQ), and TYMS inhibitor methotrexate (MTX) on the CFU potential of m-LSCs, p-LSCs and CD34+ HSPCs. […] IP, intraperitoneal; OG, oral gavage. […] Engraft % was determined by % of hCD45+/mCD45− cells within total viable bone marrow mononuclear cells. Each dot represents a unique mouse. For PDX of AML-13, control (n=11), VEN+AZA(n=9), CdA(n=10), VEN+AZA+CdA(n=10). For PDX of AML-07, control(n=11), VEN+AZA(n=9), CdA(n=12), VEN+AZA+CdA(n=9). Box plots represent median+interquartile range. Kruskal-Wallis test was used. ns, not significant. […] Engraft % was determined by % of hCD45+/mCD45− cells within total viable spleen mononuclear cells. hCD45+ count was determined by direct quantification of hCD45+/mCD45− cells within a set volume of spleen harvest using flow cytometry. Each dot represents a unique mouse. Control (n=6), VEN+AZA(n=6), CdA(n=6), VEN+AZA+CdA(n=6). Box plots represent median+/−interquartile. Kruskal-Wallis test was used. ns, not significant.
as §3
Freshly sorted m-LSCs from primary AMLs or prepared CD34+ HSPCs isolated from normal mobilized peripheral samples were plated in human methylcellulose (R&D systems) at about 100 K/ml and 2 K/ml, respectively. Small molecule inhibitors were directly added into the methylcellulose at the desired final concentration at the plating. Colonies were counted 2-3 weeks after the initial plating.

AML patients = conditions: cited from earlier work

Nc1nc(Cl)nc2c1ncn2[C@H]1C[C@@H](O)[C@@H](CO)O1 (stereo in doubt) [CdA, 5-(6-Amino-2-chloro-purin-9-yl)-2-(hydroxymethyl)oxolan-3-ol]
effect on CFU potential (sparing) (p-LSCs): sparing p-LSCs | effect on CFU potential (sparing) (normal CD34+ HSPCs): sparing p-LSCs as well as normal HSPC controls | clearance of the monocytic subpopulation [1]: targeted the monocytic counterpart | potency against m-LSCs, CdA versus BRQ and MTX (m-LSCs): outperformed BRQ and MTX in potency against m-LSCs | effect on CFU potential / specificity against m-LSCs (m-LSCs; m-LSCs isolated from AML specimens): remarkable specificity against m-LSCs

Cc1c(-c2ccc(-c3ccccc3F)cc2)nc2ccc(F)cc2c1C(=O)O [BRQ, 6-fluoro-2-(2′-fluoro-1,1′-biphenyl-4-yl)-3-methyl-4-quinolinecarboxylic acid]
potency against m-LSCs, CdA versus BRQ and MTX (m-LSCs): CdA also outperformed BRQ and MTX in potency against m-LSCs

CN(Cc1cnc2nc(N)nc(N)c2n1)c1ccc(C(=O)N[C@@H](CCC(=O)O)C(=O)O)cc1 [MTX, (28)-2-[(4-{[(2,4-Diaminopteridin-6-yl)methyl](methyl)amino}benzoyl)amino]pentanedioic acid]
potency against m-LSCs, CdA versus BRQ and MTX (m-LSCs): CdA also outperformed BRQ and MTX in potency against m-LSCs

Nc1ccn([C@@H]2O[C@H](CO)[C@@H](O)[C@@H]2O)c(=O)n1 [cytarabine, 4-amino-1-[(2R,3S,4S,5R)-3,4-dihydroxy-5-(hydroxymethyl)oxolan-2-yl]pyrimidin-2-one]
selectivity for m-LSCs over p-LSCs and normal HSPCs (m-LSCs): selectivity was not seen

COc1cccc2c1C(=O)c1c(O)c3c(c(O)c1C2=O)C[C@@](O)(C(C)=O)C[C@@H]3O[C@H]1C[C@H](N)[C@H](O)[C@H](C)O1 [daunorubicin]
selectivity for m-LSCs over p-LSCs and normal HSPCs (m-LSCs): selectivity was not seen

CC1(C)CCC(CN2CCN(c3ccc(C(=O)NS(=O)(=O)c4ccc(NCC5CCOCC5)c([N+](=O)[O-])c4)c(Oc4cnc5[nH]ccc5c4)c3)CC2)=C(c2ccc(Cl)cc2)C1 [venetoclax, 4-(4-{[2-(4-Chlorophenyl)-4,4-dimethyl-1-cyclohexen-1-yl]methyl}-1-piperazinyl)-N-({3-nitro-4-[(tetrahydro-2H-pyran-4-ylmethyl)amino]phenyl}sulfonyl)-2-(1H-pyrrolo[2,3-b]pyridin-5-yloxy)benzamide]
responses to venetoclax in combination with backbone chemotherapy (AML patients; older previously untreated AML patients): 60-70% | CR/CRi and MRD negativity rates (AML patients; venetoclax combined with chemotherapy regimens FLAG-Ida, CLIA or Clad-LDAC/AZA, recent clinical trials): superior CR/CRi and MRD negativity rates
